Literature values as cited in patent US6586615B1, “α-aminoboronic acids prepared by novel synthetic methods” (Bristol-Myers Squibb Company, priority 2001, dated 2003).

Target: chymotrypsin (Bos taurus, UniProt P00766)
Settings: inhibits chymotrypsin; background, Matteson J. Am. Chem. Soc. 103, 5241-5242 (1981)

CC(=O)NC(Cc1ccccc1)B(O)O (stereo not shown) [Ac-boroPhe-OH]
Ki: 2100 nM
